Among the data in patent US20060270677A1, “Method for the treatment of noise phobia in companion animals” (Wyeth, priority 2005, published 2006) are Cmax and Tmax values, retold here.

The structures appear in SMILES notation.

This data set can be described thus: in vivo. As to conditions: male, Beagle, dog, po. An excerpt: In this evaluation 8 male Beagle breed dogs, 6 months to 2 years of age, and at least 10 kg in weight were used. Dogs were housed in individual indoor cages in compliance with standards outlined in the Guide for the Care and Use of Laboratory Animals of the Institute of Laboratory Animal resources, National Research Council. The dogs were fed an appropriate amount of standard commercial dry ration once per day. Fresh tap water in water bowls was provided ad libitum. On the day before the test compounds were administered, food was removed from the dogs by 4:00 pm. Food was withheld until after taking blood samples at the 4 h time point after administration of test materials. Dogs were weighed and ranked by descending weight order and were given physical exams by a veterinarian. The two heaviest dogs were randomly assigned to Group 1 or 2. The second two heaviest dogs were randomly assigned to Group 1 or 2 and so on, until all 8 dogs were placed into either of the two groups. Group 1 with 4 dogs/group, was treated orally with 15 mg/kg of the acetamide test compound and Group 2 was treated orally with 15 mg/kg of the carbonitrile test compound. One week after treatment all dogs were reweighed to ensure correct dosing. Two weeks after treatment, Group 1 was treated orally with 30 mg/kg of the acetamide test compound and Group 2 was treated orally with 30 mg/kg of the carbonitrile test compound. A treatment vial containing an appropriate amount of test compound was provided for each dog. The appropriate amount of vehicle (water containing 0.5% Methocel A4M and 0.01% polysorbate 80) was added to the vial and the contents of the vial were thoroughly mixed. The resultant suspension was withdrawn with an unarmed disposable 12 ml plastic syringe and administered to the dog. Test suspensions were administered to the back of the throat to ensure that they were reliably and completely swallowed by the dog. The vials were rinsed with 0.5 ml vehicle per kg of body weight and the rinsate was administered to the dog. Blood samples were collected at regular time intervals and analyzed for concentration of test compound. The Cmax value (the maximum compound concentration in the plasma) and the Tmax value (the time, after dosing, at which the peak compound concentration was obtained) were determined by observation. For Table I, the term “Acetamide” designates N-methyl-N-[3-(3-methyl-1,2,4-triazolo-[4,3-b]pyridazin-6-yl)phenyl]acetamide; and the term “Carbonitrile” designates 7-(3-pyridyl)pyrazolo[1,5-a]pyrimidine-3-carbonitrile.

Broadly, the Cmax is the highest concentration seen after dosing. Broadly, the Tmax is the time at which the peak concentration occurs.

Consider `N#Cc1cnn2c(-c3cccnc3)ccnc12` [Carbonitrile, 7-(3-pyridyl)pyrazolo[1,5-a]pyrimidine-3-carbonitrile], for which, under “15 mg/kg”, the Cmax is 3700 ng/mL and the Tmax turned out to be 4.25 h. Moreover, where the note is “30 mg/kg”, the Cmax was 6390 ng/mL and the Tmax was determined as 8.25 h.
